Reference: PubChem BioAssay (NCI)
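Assay format: 96-well plates, 48-hour exposure. GI50 is the concentration that inhibits growth by half. TGI marks complete inhibition of growth.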

Experiments:
Assay in all cases: inhibition of tumour cell growth, NCI panel, 48 h
SW-620 colon = system: SW-620 colon
CCRF-CEM leukemia = system: CCRF-CEM leukemia
HS 578T breast = system: HS 578T breast
NCI-H23 lung = system: NCI-H23 lung
PC-3 prostate = system: PC-3 prostate
COLO 205 colon = system: COLO 205 colon
LOX IMVI melanoma = system: LOX IMVI melanoma
T-47D breast = system: T-47D breast
K-562 leukemia = system: K-562 leukemia
HCC-2998 colon = system: HCC-2998 colon
M14 melanoma = system: M14 melanoma

Structure (SMILES) | TGI (SW-620 colon) [µM] | TGI (CCRF-CEM leukemia) [µM] | TGI (HS 578T breast) [µM] | TGI (NCI-H23 lung) [µM] | TGI (PC-3 prostate) [µM] | TGI (COLO 205 colon) [µM] | TGI (LOX IMVI melanoma) [µM] | TGI (T-47D breast) [µM] | TGI (K-562 leukemia) [µM] | TGI (HCC-2998 colon) [µM] | TGI (M14 melanoma) [µM] | GI50 (PC-3 prostate) [µM]
N#Cc1c(O)c(/C=N/c2ncccn2)c(=O)n2c1[nH]c1ccccc12 | > 100 | > 100 | > 100 | > 100 | > 100 | > 100 | > 100 | > 100 | > 100 | > 100 | > 100 | –
CC[C@@]1(O)C(=O)OCc2c1cc1n(c2=O)Cc2c-1nc1ccccc1c2/C=N/NC(=O)c1ccc(N)cc1 | > 100 | – | > 100 | 1.48 | > 100 | > 100 | 0.5 | 0.389 | > 31.6 | > 69.9 | 1.23 | –
COc1ccccc1C1c2cc3c(cc2OC(N2CCOCC2)C1C)OCO3 (stereo not drawn) | 50.3 | 34.7 | 39 | 58.7 | 71.9 | – | 35.2 | 78.3 | 24 | – | 38.7 | –
O=C(CC(Cl)=C(Cl)Cl)c1ccccc1 | > 100 | 30.4 | > 100 | > 100 | > 100 | 78.9 | 32.1 | > 100 | 50 | – | > 100 | –
CC(C)Oc1c(-c2ccc(F)cc2)c(O)c2c3c1oc(=O)n3C=CC2C (stereo not drawn) | 28.5 | 29.8 | 52.8 | 24.6 | 31.7 | 32.2 | 28.2 | – | 39.6 | 26.2 | 28.5 | –
N#CNC(=NCCc1c[nH]c2ccccc12)Oc1ccccc1 | > 100 | > 100 | – | > 100 | – | > 100 | > 100 | – | > 100 | > 100 | > 100 | –
O=C(NNC(=O)c1csc(NC(=S)NC2CCCCC2)n1)c1ccccc1 | 29.5 | 68.6 | – | 40.6 | 48.9 | 20.1 | 22 | 17.3 | – | 32.2 | 35.4 | –
c1ccc2c(c1)OC(N1CCCC1)c1cnc(N3CCOCC3)nc1-2 (stereo not drawn) | > 100 | > 100 | > 100 | 30.9 | > 100 | > 100 | > 100 | 45.2 | > 100 | – | > 100 | –
Cc1cnc2sn(-c3ccc(Br)cc3)c(=O)c2c1 | 89.6 | 69.7 | 88.1 | > 100 | > 100 | 49.3 | > 100 | 48.4 | – | > 100 | > 100 | –
CCOC1CC(C)N(C(=O)c2ccccc2)O1 (stereo not drawn) | > 100 | > 100 | > 100 | > 100 | > 100 | – | – | > 100 | > 100 | > 100 | > 100 | –
Cc1n(Cc2ccccc2)nc2sc(N)n[n+]12 | > 100 | > 100 | > 100 | > 100 | > 100 | > 100 | > 100 | > 100 | > 100 | – | > 100 | –
Cc1cccc(N/C(Sc2ccccc2)=C(/C(Cl)=C(Cl)Cl)[N+](=O)[O-])c1 | 31.1 | > 100 | – | 37 | > 100 | 29 | – | 42.7 | 57.8 | > 100 | 36.7 | –
CC1=C(C)SC(=C2Sc3nc(O)[nH]c(=O)c3S2)S1 | > 100 | > 100 | > 100 | > 100 | > 100 | > 100 | > 100 | – | > 100 | > 100 | 94.1 | –
Cn1cc(-c2csc(-c3cn(C)c4ccccc34)n2)c2ccccc21 | > 100 | > 100 | > 100 | > 100 | 89.8 | > 100 | > 100 | 89.6 | 31.9 | – | > 100 | –
Cc1cnc2[nH]c(-c3ccc4ccccc4c3)cc(=O)c2c1 | > 100 | – | > 100 | – | > 100 | 18.6 | > 100 | > 100 | – | > 100 | > 100 | 0.404
CC1(C)[C@@H]2C[C@H]1c1cnc(-c3ccccn3)cc1C2CCCCC[C@@H]1c2cc(-c3ccccn3)ncc2[C@@H]2C[C@H]1C2(C)C (stereo partly drawn) | > 100 | 6.28 | – | – | > 100 | > 32.8 | 19.3 | > 100 | > 100 | > 100 | > 22.1 | –
Cn1c(N)nc(-c2ccc(Cl)cc2)c1SSc1c(-c2ccc(Cl)cc2)nc(N)n1C | 4.03 | 5.05 | > 100 | 3.37 | 3.38 | 3.81 | – | 5.06 | 6.2 | 20.7 | 3.78 | –
Cc1ccc(C(=O)N/N=C(\N=Nc2ccc(C(=O)O)cc2)c2ccc(N(CCC#N)CCC#N)cc2C)cc1 | > 100 | > 100 | – | > 100 | > 100 | > 100 | > 100 | > 100 | > 100 | > 100 | > 100 | –
CC(=O)OC(C)(C)CCC(=O)[C@](C)(O)[C@H]1[C@H](O)C[C@@]2(C)[C@@H]3CCc4c(cc(OC5OC(CO)C(O)C(O)C5O)c(O)c4C)C3(C)C(=O)C[C@]12C (stereo partly drawn) | > 100 | > 100 | – | > 100 | > 100 | > 100 | > 100 | > 100 | > 100 | > 100 | > 100 | –
Cc1[nH]c(=O)nc(NNCc2ccc(Cl)cc2)c1C(=O)Nc1ccc(Cl)cc1 | > 100 | > 100 | > 100 | > 100 | > 100 | > 100 | > 100 | > 100 | – | > 100 | > 100 | –
CN1CC2CN(Cc3ccccc3)CCN2c2cccnc21 (stereo not drawn) | > 100 | > 100 | > 100 | > 100 | > 100 | > 100 | 49.4 | > 100 | > 100 | – | > 100 | –
